In PubChem BioAssay (NCI):
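Results reflect a 48-hour exposure of cells in 96-well plates to compound at five concentrations. Abbreviation: GI50, concentration required for 50% inhibition of growth. TGI denotes the concentration required for complete inhibition of growth.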

Key:
Experiment in all cases: NCI anticancer screen, dose series, 48 h
[1] = system: HL-60(TB) leukemia
[2] = system: COLO 205 colon
[3] = system: CAKI-1 renal
[4] = system: TK-10 renal
[5] = system: UACC-62 melanoma
[6] = system: HS 578T breast
[7] = system: OVCAR-5 ovarian
[8] = system: 786-0 renal
[9] = system: U251 CNS
[10] = system: HT29 colon

Compound	TGI [1] [µM]	TGI [2] [µM]	TGI [3] [µM]	TGI [4] [µM]	TGI [5] [µM]	TGI [6] [µM]	TGI [7] [µM]	TGI [8] [µM]	TGI [9] [µM]	TGI [10] [µM]	GI50 [1] [µM]	GI50 [2] [µM]	GI50 [3] [µM]	GI50 [4] [µM]	GI50 [6] [µM]	GI50 [7] [µM]	GI50 [9] [µM]	GI50 [10] [µM]
O=[N+]([O-])c1cccc2nc3ccccc3c(NCCc3cccc[n+]3[O-])c12	0.277	< 0.0168	0.901	0.225	0.211	0.299	0.145	0.249	0.145	0.0628	–	–	–	–	–	–	–	–
CN(NC(=O)CCCl)C1=NCCN1	> 100	> 100	–	> 100	> 100	> 100	> 100	> 100	> 100	> 100	–	–	–	–	–	–	–	–
CC1(C2(C)OC(=O)c3ccccc32)OC(=O)c2ccccc21 (stereo unspecified)	> 100	> 100	> 100	> 100	> 100	> 100	–	> 100	> 100	> 100	–	–	–	–	–	–	–	–
COc1ccc2nc3ccc(OC)cc3c(S(=O)(=O)Cc3ccc([N+](=O)[O-])cc3)c2c1	> 100	> 100	> 100	> 100	> 100	–	> 100	> 100	> 100	> 100	–	–	–	–	–	–	–	–
O=c1[nH]c(Nc2cccc(C(F)(F)F)c2)nc2nc[nH]c12	> 100	> 100	> 100	> 100	–	> 100	> 100	> 100	> 100	> 100	–	–	–	–	–	–	–	–
CCCCCNc1nonc1N	–	> 100	> 100	> 100	> 100	> 100	> 100	> 100	> 100	> 100	–	–	–	–	–	–	–	–
Nc1c(-c2nc3ccccc3s2)c2ccc([N+](=O)[O-])cc2c(=O)n1-c1cccc(C(=O)O)c1	37.7	> 100	80.3	52.3	58.6	> 100	–	> 100	56	> 100	–	–	–	–	–	–	–	–
COCC1CCCN1c1ccc(/C=C(/C#N)C(N)=S)cc1 (stereo unspecified)	> 100	> 100	> 100	> 100	–	> 100	> 100	–	> 100	> 100	> 100	> 100	> 100	> 100	> 100	> 100	> 100	> 100
CC1CC[C@@]2(OC1)OC1C[C@H]3[C@@H]4C/C(=N\N(C)C)[C@@]5(O)CC(O)CC[C@]5(C)[C@H]4CC[C@]3(C)C1[C@@H]2C (stereo partly specified)	54.3	> 100	–	> 100	> 100	> 100	> 100	> 100	> 100	49.2	–	–	–	–	–	–	–	–
NC(=O)N1N=C2c3ccccc3CC[C@@H]2C1c1ccccc1 (stereo partly specified)	> 100	> 100	> 100	> 100	> 100	–	> 100	> 100	> 100	> 100	–	–	–	–	–	–	–	–
COC(=O)C1(Cc2ccc3c(c2)CCC3)Cc2ccc3c(c2C1O)CCC3 (stereo unspecified)	> 100	25.6	29.4	54.8	32.9	42.1	–	28.6	30.6	31.6	–	–	–	–	–	–	–	–
COc1cc(-c2oc3c(OC)c(O)c(OC)c(O)c3c(=O)c2OC)cc(O)c1OC	57.9	> 100	> 100	> 100	71.8	–	> 100	> 100	> 100	> 100	–	–	–	–	–	–	–	–
O=C1CN2Cc3cc(N4CCOCC4)ccc3N=C2N1	> 100	> 100	> 100	> 100	> 100	> 100	> 100	–	> 100	> 100	–	–	–	–	–	–	–	–
N#CCCN(CCC#N)c1ccc(C(N=Nc2ccccc2)=Nc2ccccc2)cc1	–	> 100	> 100	> 100	> 100	> 100	> 100	> 100	> 100	> 100	–	–	–	–	–	–	–	–
COc1cccc(NC(=S)Nn2c(C)nc3ccccc3c2=O)c1	> 100	> 100	> 100	> 100	> 100	–	> 100	> 100	> 100	> 100	–	–	–	–	–	–	–	–
O=C1/C(=C\c2cccc(Oc3ccccc3)c2)S(=O)(=O)C(c2ccccc2)N1c1ccc(Cl)cc1 (stereo unspecified)	32.7	28.2	84.2	> 100	57	–	88.7	27	30.5	28.2	–	–	–	–	–	–	–	–
COC1=CC(=O)[C@H]2[C@H](C)C(c3ccccc3)[C@@]2(C)C1=O (stereo partly specified)	> 100	> 100	> 100	> 100	> 100	–	> 100	> 100	> 100	> 100	–	–	–	–	–	–	–	–
O=C1CCC[C@]2(CCC[C@@H](O)C2)N1	> 100	> 100	> 100	> 100	–	> 100	> 100	> 100	–	> 100	–	–	–	–	–	–	–	–
N#Cc1c(-c2ccco2)cc(-c2ccc(NCc3nc4ccccc4[nH]3)cc2)nc1N	47.3	47.9	> 100	86.2	45.1	–	> 100	87.9	> 100	91.7	–	–	–	–	–	–	–	–
CCCc1cc(=O)oc2c3c(c4c(c12)OC(C)(C)C=C4)O[C@@H](C)[C@H](C)C3=O	33.4	49.5	73.9	44.3	–	38.7	33.2	38.8	97.6	23.2	–	–	–	–	–	–	–	–
O=c1oc2ccccc2c(O)c1C(c1ccco1)c1c(O)c2ccccc2oc1=O	> 100	48.9	42.4	80.2	70	> 100	–	55.5	61.8	> 100	–	–	–	–	–	–	–	–
